In US9562031B1, “Phenethyldihydrobenzodioxolones and methods of use” (Sequoia Sciences, Inc., priority 2015, dated 2017):
Counter-ions that a name gives are not always drawn.

Tested on: NCI-H460 or M14 cells
Experiment: in vitro antiproliferation assay (cell line not stated for the salt)
Type: cell-based
Settings: Homo sapiens, HCl salt
Experimental: For the antiproliferation assay, NCI-H460 (large cell lung carcinoma) or M14 (amelanotic melanoma) cells were grown in RPMI-1640 with 10% FBS supplemented with L-glutamine and HEPES. Cells were seeded into 96-well plates at 5×10^2 to 5×10^4 cells/well and allowed to adhere overnight; the medium was then removed. A stock solution of test compound in DMSO was diluted in medium to generate a series of working solutions. Aliquots (100 μl) of the working solutions were then added to the appropriate test wells to expose cells to the final concentrations of compound in a total volume of 100 μl. Seven different concentrations were tested, with 2-5 wells per concentration. Camptothecin was used as a positive control; wells containing vehicle without compound were used as negative controls. Plates were kept for 72 h in a 37° C., 5% CO2 incubator. After incubation, viable cells were detected with the CELLTITER 96 AQueous Non-Radioactive Cell Proliferation Assay (Promega), and IC50 values were determined using GraphPad Prism 5 software.
As stated herein, the invention also includes compounds and their salts. The HCl salt of compound 66 was prepared, and the salt retained activity in the in vitro antiproliferation assay (IC50 5-7 μM).

IC50: 5 to 7 µM
SMILES: COc1cc(F)c(C[C@H](C)[C@]23C[C@H](Cc4ccncc4)C(=O)C=C2OCO3)cc1O [HCl salt of compound 66, (6S,7aR)-7a-((S)-1-(2-fluoro-5-hydroxy-4-methoxyphenyl)propan-2-yl)-6-(pyridin-4-ylmethyl)-7,7a-dihydrobenzo[d][1,3]dioxol-5(6H)-one hydrochloride]
